Structures can show the parent of a compound that is named as a salt.
Experiments:
[1] = test system: isolated rat-brain synaptosomes; assay: 6-OHDA-induced neurotoxicity in isolated rat synaptosomes, synaptosomal viability; type: cell-based; conditions: Rattus norvegicus; 10 µM pre-incubation 30 min, then 150 µM 6-OHDA 1 h; read-out: synaptosomal viability (SV) preserved, as compared to 6-OHDA
Description: (§1) This neurotoxicity model was based on the metabolism and auto-oxidation of 6-hydroxy dopamine responsible for the reactive oxygen species and quinones generation, ultimately leading to neurotoxicity and neurodegeneration. The experiment was performed by pre-incubation of the synaptosomes with 10 µM of the compounds for 30 min, followed by the addition of 150 µM 6-hydroxy dopamine for induction of neurotoxicity. After 1 h, they were centrifuged twice for 1 min at 15,000 × g. After the second wash, the precipitates were resolved with buffer B and glucose.

[2] = Superoxide radical scavenging, xanthine/xanthine oxidase/NBT system; type: biochemical
Description: The 1 mL cuvette for the control contained 1 mM xanthine, 20 µL xanthine oxidase (100 IU/L), and 0.04 mM NBT [43, 44]. In the sample compositions, the tested hydrazones at different concentrations were added. All measurement compositions were incubated at 37 °C, and the absorbance was determined spectrophotometrically at 560 nm via Shimadzu UV-1601 UV-vis spectrophotometer.
The potential capability of the investigated compounds to prevent the superoxide-anion radical-induced NBT reduction was investigated spectrophotometrically by xanthine-oxidase assay. The assay was carried out at the final concentration of the tested compounds, at 1, 10, 50, and 100 µM.

[3] = MTT cell viability assay (cytotoxicity), SH-SY5Y; conditions: human, SH-SY5Y neuroblastoma cells
Description: Neuroblastoma cell line SH-SY5Y (94030304) was acquired from the European Collection of Cell Cultures (ECACC, Salisbury, UK). Cells were cultured in a medium prepared with RPMI basic media supplemented with 10% heat-inactivated FBS (fetal bovine serum), 2 mM L-glutamine, 1% antibiotics (penicillin/streptomycin), and incubated at 37 °C in a humidified atmosphere containing 5% of CO2. The culture’s medium was replaced at a time interval of 2–3 days.
(§2) Cell viability was assessed via the mitochondrial reductase-dependent reaction of (3-(4,5-dimethylthiazol-2-yl)- 2,5-diphenyl tetrazolium bromide (MTT, cat. no. 475989, Calbiochem, Merck KGaA, Darmstadt, Germany). The SH-SY5Y and bEnd3 cell lines were seeded in 96-well plates at a density of 0.7 × 10^4 (bEnd3) or 2 × 10^4 (SH-SY5Y) cells/well and allowed to adhere for 24 h at 37 °C, 5% CO2. Then, the cells were incubated with the compounds (1–500 μM) for a preset time (24 h). For the solvent, the control cells were treated with DMSO corresponding to the highest concentration of DMSO in the samples (0.5% DMSO) in order to exclude its cytotoxic effect on the cells. For each concentration, a set of at least 6 wells were used. After incubation, the solution from each well was exchanged with fresh culture medium (100 µL/well), containing the MTT reagent (0.5 mg/mL) and incubated for 3 h at 37 °C in a humidified atmosphere and 5% CO2. The obtained formazan crystals were dissolved in 100 µL/well of 5% formic acid in propan-2-ol solution (or DMSO). The absorbance was measured at 570 nm via multiplate reader Tecan Infinite F200 PRO (Tecan Trading AG., Männedorf, Switzerland) or Synergy 2 (BioTek Instruments, Inc., Highland Park, Winooski, VT, USA).
(§3) Both the SH-SY5Y and bEnd3 cells were treated with the test compounds in a concentration range from 1 to 500 µM for 24 h.

[4] = Fe(II)-induced lipid peroxidation assay (LP assay, TBARS); type: biochemical; conditions: 90 µM, lecithin 1 mg/mL, 0.1 mM FeCl2; lower = stronger antioxidant
Description: (§4) The lipid peroxidation assay and a modification of the deoxyribose-degradation assay were used. Two types of measurement compositions in phosphate buffer (PB–K2HPO4/KH2PO4, pH 7.4) were prepared for both tests: (i) samples, containing the biologically relevant molecules (lecithin emulsion or deoxyribose), iron, and the tested hydrazones at the concentrations indicated below the figures; and (ii) controls, in which the tested hydrazones were omitted. The data for the sample activity were presented as a percentage of the control measurement.
The thiobarbituric-acid reactive-substance colorimetric test was performed in a model system of Fe(II)-induced lipid peroxidation as an emulsion prepared from egg yolk phospholipids. Each sample contained 1 mg/mL of lecithin. LP was initiated using 0.1 mM FeCl2. After 30 min incubation at 37 °C, 0.5 mL of 2.8% trichloroacetic acid solution and 0.5 mL of 0.5% thiobarbituric acid solution were added, following a second incubation at 100 °C for 20 min. Centrifugation at 3000 rpm for 20 min at 4 °C was performed, and we determined the absorbance value of the supernatant at 532 nm via Shimadzu UV-1601 UV-VIS spectrophotometer.

[5] = O-phenanthroline Fe(II) chelation test; type: physicochemical; conditions: 200 µM compound, FeCl2
Description: The Fe (II)-chelating activity of the tested hydrazones was determined by the O-phenanthroline method. A total of 1 mL sample solutions of 50 mM PB pH 7 contained 0.2 mM O-phenanthroline and 0.05 mM FeCl2 and 0.2 mM hydrazone. In the controls, the tested compounds were omitted. Absorbance was measured at 515 nm via GENESYS 50 UV-VIS spectrophotometer after incubation for 5 min at 37 °C. The data for the sample activity were presented as a percentage of the control measurement. Absorbance spectra of all the samples, the control, and the measurement compositions containing the tested hydrazones and Fe(II) at the concentrations used in the samples were measured.
To explain the results of both systems of Fe(II)-induced oxidative damage, we studied the potency of the tested compounds to chelate-iron (Fe(II)). This was studied by spectrophotometric determination of free iron (Fe(II)) using the ortho-phenanthroline test, as 1,10-phenantroline reacts rapidly with Fe(II) ions in weakly acidic media, generating an orange–red complex (ferroin) with characteristic absorbance spectra (molar absorptivity 1.10.104 (α = 0.20) at ~max 512 nm and a molar ratio 3:1 (R: Fe(II))). The generated complex was stable, and the bound Fe(II) was resistant to oxidation. Lower absorbance of the reaction mixture indicated higher Fe^2+-chelating activity.

[6] = MTT cell viability assay (cytotoxicity), bEnd3; type: cell-based, mouse; conditions: mouse, bEnd3 brain endothelial cells, 1–500 µM
Description: Mouse-brain endothelial cell line bEnd3 [36] (CRL-2299) was purchased from the American Type Culture Collection (ATCC, Manassas, VA, USA). The cells were cultured in DMEM (Dulbeco’s modified essential medium) (cat. no. 30-2002, ATCC, Manassas, VA, USA), supplemented with 10% heat-inactivated FBS (cat. no. F7524, Sigma-Aldrich Co. LLC, St. Louis, MO, USA), 1 mM L-glutamine (cat. no. G7513, Sigma-Aldrich Co. LLC, St. Louis, MO, USA) and 1× Antibiotic-Antimycotic solution (penicillin: streptomycin: amphotericin B (100 U/mL: 0.10 mg/mL: 0.25 µg/mL) (cat. no. A5955, Sigma-Aldrich Co. LLC, St. Louis, MO, USA) at 37 °C in a humidified atmosphere containing 5% CO2. The cells were passaged in 75 cm^2 flasks every 3–5 days via trypsinization (StableCell Trypsin solution, cat. no. T2610, Sigma-Aldrich Co. LLC, St. Louis, MO, USA).
as §2, §3

[7] = test system: isolated rat-brain synaptosomes; assay: 6-OHDA-induced neurotoxicity in isolated rat synaptosomes, GSH level; type: cell-based; conditions: 10 µM pre-incubation 30 min, then 150 µM 6-OHDA 1 h
Description: as §1

[8] = test system: isolated rat-brain synaptosomes; assay: Synaptosomal viability (MTT), substances administered alone
Description: (§5) Preparation of the synaptosomes was carried out by multiple centrifugations using the Percoll gradient. Homogenization of the brains was performed in 10 volumes of cold buffer 1, which contained 5 mM HEPES and 0.32 M sucrose (pH = 7.4), followed by centrifugation at different speeds. For preparation of the gradient, the synaptosomes were isolated by Percoll reagent. Synaptosomes were resuspended and incubated in buffer 2, which contained 290 mM NaCl, 0.95 mM MgCl2x6H2O, 10 mM KCl, 2.4 mM CaCl2xH2O, 2.1 mM NaH2PO4, 44 mM HEPES, and 13 mM D-glucose. Incubations were performed in a 5% CO2 + 95% O2 atmosphere. The method of Lowry et al., using bovine serum albumin as a standard content, was applied for determination of synaptosomal protein [51].
Synaptosomal viability was monitored based on a (3-(4,5)-dimethylthiazol-2-yl)-2,5-diphenyl tetrazolium bromide) assay. After incubation with the compounds, synaptosomes were treated with 0.5 mg/mL solution of (3-(4,5)-dimethylthiazol-2-yl)-2,5-diphenyl tetrazolium bromide) for 10 min at […]. Then, the synaptosomes were centrifuged twice at 15,000× g for 1 min. The resulting formazan crystals were dissolved in DMSO (dimethyl sulfoxide), and the extinction was determined by spectrophotometric measurements at 580–660 nm. […]

SH-SY5Y cells = assay: H2O2-induced oxidative stress model in SH-SY5Y cells; type: cell-based, human; conditions: H2O2 1 mM 15 min
Description: The SH-SY5Y cells were seeded in 96-well plates at a density of 3.5 × 10^4/well in 100 μL of RPMI supplemented with FBS for 24 h. Then, the cell medium was aspirated, and the cells were treated with different concentrations of the compounds—1, 10, and 50 µM for 90 min. Afterwards, the SH-SY5Y cells were washed with PBS and were exposed to hydrogen peroxide (H2O2) (1 mM in PBS for 15 min) to induce oxidative stress. All well contents were replaced by fresh culture medium and incubated for 24 h. MTT assay was used to evaluate the amount of attached viable cells. Negative controls (cells without H2O2 treatment) were considered as 100% protection and H2O2-treated cells as 0% protection.
To evaluate the possible neuroprotective effects of the compounds, the SH-SY5Y cells were pre-treated with different concentrations (1, 10, 50 µM) for 90 min and then exposed to H2O2 (1 mM) for 15 min. The cell viability of all compounds was measured to verify their protective effect against the toxicity of hydrogen peroxide.

[9] = test system: isolated rat-brain synaptosomes; assay: Level of reduced glutathione (GSH) in isolated synaptosomes, substances administered alone
Description: as §5
After the treatment with the tested compounds, the glutathione levels of the synaptosomes were determined with an Ellman reagent (DTNB). The GSH levels were evaluated based on the synaptosomal sediment, precipitated with 5% TCA, and centrifuged for 10 min at 4000× g. GSH levels in the supernatant were measured spectrophotometrically at 412 nm by a Spectro UV-vis split spectrophotometer (LaboMed. Inc., Los Angelis, California, USA). […]

[10] = Fe(II)-induced deoxyribose degradation assay; type: biochemical; conditions: 80 µM, 2-deoxyribose 0.5 mM, 0.1 mM FeCl2; lower = stronger antioxidant
Description: as §4
The deoxyribose (0.5 mM) damage was induced by adding FeCl2 (0.1 mM). The measurement compositions were incubated at 37 °C for 30 min. The next step comprised adding 0.5 mL of 2.8% trichloroacetic acid and 0.5 mL of thiobarbituric acid. Then, the samples were heated in boiling water for 20 min, and their absorbance was estimated at 532 nm (characteristic band for the generated chromophore) via Shimadzu UV-1601 UV-vis spectrophotometer.

| SMILES | viability at 10 µM [1] [%] | IC50 at 24 h [3] [µM] | absorbance ratio sample/control (lipid peroxidation) [4] | absorbance at 515 nm compared to the controls (Fe(II) chelation) [5] | IC50 at 24 h [6] [µM] | absorbance ratio, % of the controls (deoxyribose degradation) [10] | other results |
| --- | --- | --- | --- | --- | --- | --- | --- |
| O=C(CCc1c[nH]c2ccccc12)NN=Cc1ccc(O)c(O)c1 [Compound 3b, N′-(3,4-Dihydroxybenzylidene)-3-(1H-indol-3-yl)propanehydrazide] | 33 | 265 | below 65% | statistically identical absorbance values at 515 nm, as compared to the controls | 352 | – | decrease of NBT reduction as compared to the controls ([2]; 100 µM (highest tested concentration)): more than 40% |
| C#CCN[C@@H]1CCc2ccccc21 [Rasagiline.HCl, Rasagiline] | 67 | > 500 | – | – | – | – | GSH level preserved, as compared to 6-OHDA [7]: 80%; reduction of synaptosomal viability (SV) vs. non-treated synaptosomes ([8]; 100 µM): 25%; protective effect: increased cell viability of SH-SY5Y vs. H2O2 group (SH-SY5Y cells; 10 µM pre-treatment 90 min): 40%; protective effect: increased cell viability of SH-SY5Y vs. H2O2 group (SH-SY5Y cells; 50 µM pre-treatment 90 min): 46%; reduction of GSH level vs. non-treated synaptosomes ([9]; 100 µM): did not decrease |
| NCCc1cc(O)c(O)cc1O [Compound 6-OHDA, 6-hydroxydopamine] | – | – | – | – | – | – | decrease of synaptosomal viability (SV) vs. non-treated synaptosomes ([8]; 150 µM): 55%; decrease of GSH level vs. non-treated synaptosomes ([9]; 150 µM): 50% |
| O=c1c(O)c(-c2ccc(O)c(O)c2)oc2cc(O)cc(O)c12 [quercetin, reference compound] | – | – | 23% | – | – | about 50% | – |
| O=C(CCc1c[nH]c2ccccc12)NN=Cc1ccc(O)cc1O [Compound 3c, N′-(2,4-Dihydroxybenzylidene)-3-(1H-indol-3-yl)propanehydrazide] | 33 | 275 | below 65% | statistically identical absorbance values at 515 nm, as compared to the controls | > 500 | did not induce a modulating effect | absorbance ratio (NBT reduction, % of control) ([2]; 1, 10, 50 and 100 µM): did not influence the estimated absorbance ratio at any of the tested concentrations; melting point: 239 to 240 °C |

Source: PMC10135567, “New Indole-3-Propionic Acid and 5-Methoxy-Indole Carboxylic Acid Derived Hydrazone Hybrids as Multifunctional Neuroprotectors” (Antioxidants, 2023)
